# Where no end group is shown, it is not given here.
# Key:
# C. neoformans ATCC 32045 [1] = assay: Reactive oxygen species detection, H2DCFDA; assay type: cell-based, Cryptococcus neoformans; settings: 1 × MIC, 8 × MIC, 32 × MIC, 30 min, 35 °C; H2DCFDA 10 μM, 488/525 nm
# Experimental: 2′,7′-Dichlorofluorescin diacetate (H2DCFDA) is a cell-permeable probe for detecting intracellular ROS [77]. […] The different concentrations of blap-6 (1 × MIC, 8 × MIC, and 32 × MIC) were incubated with the diluted fungal solution at 35 °C for 30 min, and 0.1 mM H2O2 was used as a positive control. The negative control group was treated with normal saline and incubated at 37 °C for 30 min. Centrifuged at 8000 rpm and 4 °C for 5 min, discard the supernatant, leaving the cell precipitate. The H2DCFDA dye (Boer, Shanghai, China) was dissolved in DMSO and diluted with normal saline containing 1% DMSO to a final concentration of 10 μM. And added 1 mL of H2DCFDA (10 μM) working solution to each tube and incubated at 35 °C for 30 min. And then precipitated the pellets, discarded the supernatant, and paid attention not to suck out the fungi. […] The excitation/wavelength emission was set at 488/525 nm, and three replicates were set in the experiment.
# A. baumannii = assay: microbe, parasite or virus in culture; assay type: cell-based, Acinetobacter baumannii (ATCC 1968)
# From the text: These standard strains of Escherichia coli (E. coli, ATCC 8739), Staphylococcus aureus (S. aureus, ATCC 6538), Pseudomonas aeruginosa (P. aeruginosa, ATCC 27853), Acinetobacter baumannii (A. baumannii, ATCC 1968), Candida albicans (ATCC 10231), and the clinical strain of Methicillin-resistant Staphylococcus aureus (MRSA, MRSA-Z) were obtained from Kunming Medical University. The standard strain of C. neoformans (ATCC 32045) was purchased from Shanghai Yingxin Laboratory Co., Ltd. (CAS NO. YXJ50058). Different strains of E. coli, S. aureus, MRSA, P. aeruginosa, and A. baumannii were cultured with shaking at 37 °C in Luria–Bertani (LB) medium. C. neoformans was cultured at 35 °C in Sabouraud Dextrose Agar (SDA) medium according to the manufacturer’s instructions.
# According to Clinical and Laboratory Standards Institute (CLSI) protocols, the minimum inhibitory concentration (MIC) is the minimum drug concentration at which antibiotics inhibit the growth and reproduction of strains. The different strains were grown in their corresponding media at 35 °C or 37 °C until they entered the exponential growth phase. Fluconazole and amphotericin B were used as positive controls, and sterile 0.9% NaCl was used as a negative control. The peptides were diluted to various concentrations in sterile saline. According to 1 OD = 1 × 10^9 CFU/mL, the above bacterial solution was diluted to 2 × 10^5 CFU/mL with the corresponding medium. In advance, 100 μL of normal saline was added to a sterile 96-well plate, and 200 μL of the sample to be tested was added to the first well. The sample to be tested was subjected to double gradient dilution, and then 100 μL of bacterial solution with a concentration of 2 × 10^5 was added to each well. It was cultured at 35 °C or 37 °C for different times. The light absorption value of the bacterial solution at 600 nm was detected by a microplate reader (Epoch Etock, Biotek, Winooski, VT, USA), and the average concentration of the samples in the pores and adjacent pores that could not detect microbial growth was used as the MIC value.
# [2] = tested on: C. neoformans ATCC 32045 pre-formed biofilm; assay: Biofilm eradication (crystal violet); assay type: cell-based, Cryptococcus neoformans; settings: 1 × MIC, 48 h pre-formed biofilm, 48 h treatment, A600
# Experimental: The single colony of C. neoformans ATCC 32045 was picked and cultured at 180 rpm and 37 °C. After washing with normal saline three times and being resuspended, the concentration of the fungal solution was adjusted to 1 × 10^6 CFU/mL and then added to a 96-well plate. Each well was incubated at 37 °C for 48 h. The fungal solution was discarded and washed three times with PBS for 1 min each time. The sample to be tested was diluted with normal saline to 0.5×, 1×, 2×, 4× and 8 × MIC, and 200 μL was added to the 96-well plate, respectively. Each concentration was set to three replicate wells, and the negative control group was added with the same volume of sterile normal saline. In the positive control group, 10 μM fluconazole and 10 μM amphotericin B were added and incubated at 37 °C for 48 h. After that, the supernatant was discarded and washed three times with sterile PBS for 1 min each time. And then, 99% methanol was added and fixed for 5 min. Methanol was removed and dried under the ultra-clean bench. After staining with 100 μL 0.1% crystal violet for 5 min, wash the plate with PBS, dry, and add 100 μL 95% ethanol. The absorbance at 600 nm was detected by a microplate reader.
# [3] = tested on: C. neoformans ATCC 32045 cell membrane; assay: Membrane potential, DiSC3(5) staining; assay type: cell-based, Cryptococcus neoformans; settings: 1 × MIC, 8 × MIC and 16 × MIC; DiSC3(5) 0.5 μM, ex/em 622/670 nm
# Experimental: DiSC3(5) is a fluorescent probe often used as a tracer dye to assess the cell membrane potential. […] C. neoformans ATCC 32045 was selected for SDB medium and cultured in a constant-temperature shaker at 35 °C to the logarithmic phase. The supernatant was removed by centrifugation at 3500 rpm for 5 min, washed three times with normal saline, and then the fungal solution was diluted with normal saline containing 100 mM potassium chloride to an OD600 of about 0.1. […] The above-mixed suspension was added to a fluorescence-specific 96-well plate, 190 μL per well, and the excitation/emission wavelength was set at 622/670 nm, and a microplate reader was used for measurement. The measurement was performed until the microplate reader value was stable and then continued for 20 min. The experimental group was added with 10 μL blap-6 to make the final concentrations 16 × MIC, 8 × MIC, and 1 × MIC, respectively. The positive control group was added with 10 μL of valinomycin to a final concentration of 10 μM. The negative control was added to 10 μL of normal saline. Continue to measure for 60 min. Three replicates were set up in the experiment.
# C. neoformans ATCC 32045 [4] = assay: Transmission electron microscopy of treated cells; assay type: cell-based, Cryptococcus neoformans; settings: 1 × MIC (0.81 μM), 12 h, 37 °C
# Experimental: The suspension of C. neoformans ATCC 32045 was prepared and then centrifuged at 3500 rpm for 5 min. The supernatant was discarded, and sterile normal saline was added for washing. That is, the above operation was repeated three times and re-suspended. […] The positive control, including the concentration of fluconazole and amphotericin, was 1 × MIC. The negative control was added with the same volume of sterile normal saline. After the sample was added to the fungal solution, it was incubated in an incubator at 37 °C for 12 h, and then centrifuged at 1000 rpm for 10 min. The supernatant was discarded, and osmium tetroxide was slowly added along the tube wall for fixation and fixed at 4 °C for 3 h. Gradient ethanol was used for dehydration, infiltration, and embedding. Finally, ultrathin sections were performed. After the above operation, the morphological changes in C. neoformans were observed by TEM (Tecnai G2 Spirit, FEI, Eindhoven, Holland) and photographed.
sequence,measurement,setting,value
KRCRFRIYRWGFPRRRF [blap-6],production of reactive oxygen species (ROS),C. neoformans ATCC 32045 [1],concentration-dependent increase
same,MIC,A. baumannii,19.54 µM
same,eradication of pre-formed biofilm,[2],ability to remove pre-formed C. neoformans biofilm
same,change of membrane potential,[3],deviations toward cell hyperpolarization in a dose-dependent manner
same,cell morphology by TEM,C. neoformans ATCC 32045 [4],severe disruption of the structural and cellular morphology
